Laboratory results from patent publication US6818407B2, “Anti-endotoxic antimicrobial cationic peptides and methods of use therfor” (priority 1998, dated 2004).
Marks after values point to notes of the source that are not given here. Ends that are not written are not given here.

Tests used:
[1] = system: mutant (Nal B, H744) of P. aeruginosa; assay: microbe, parasite or virus in culture; assay type: cell-based
Summary of the method: (§1)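 Checkerboard titration in Mueller Hinton broth, peptide against carbenicillin or ciprofloxacin, inoculum 10 μl of 10^−4 dilution of overnight culture, 18-24 h at 37 °C. Combination MIC is the lowest concentration reducing growth >50%. FIC index = A/MIC A + B/MIC B, with ≤~0.5 synergy, 1.0 additivity, >1.0 antagonism.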

[2] = system: β-lactamase derepressed mutant (H547) of P. aeruginosa; assay: microbe, parasite or virus in culture; assay type: cell-based; details: P. aeruginosa H547
Summary of the method: as §1

[3] = system: Pseudomonas aeruginosa strain M2; assay: Protection of neutropenic CD-1 mice challenged with Pseudomonas aeruginosa; assay type: in vivo; set-up: Survival post bacterial challenge, surviving mice: reference not given here; details: for Survival (%) post bacterial challenge: PBS 8
Summary of the method: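 Neutropenia induced by three i.p. cyclophosphamide doses ([…], alternate days); mice then infected i.p. with 200-300 organisms/mouse. Peptides (200 µg/mouse = 8 mg/kg) in buffered citrate given i.p. at 30 min (single) or 30 min and 16 hrs (double) post-challenge; PBS control; mean of 2 experiments.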

Salmonella typhi = assay: Synergy study (checkerboard titration) with hen white lysozyme; assay type: cell-based
P. aeruginosa (H103) = assay: as above; assay type: cell-based
E. coli [4] = assay: as above; assay type: cell-based
S. epidermis = assay: MIC, broth microdilution assay in polypropylene microtiter trays; assay type: cell-based; details: average of three separate experiments
Summary of the method: (§2)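 Serially titrated peptides incubated with bacteria; growth tracked as OD; lowest level without OD change over the given period reported as MIC.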

P. aeruginosa = assay: as above; assay type: cell-based; details: average of three separate experiments
Summary of the method: as §2

S. aureus = assay: as above; assay type: cell-based; details: average of three separate experiments
Summary of the method: as §2

E. coli [5] = assay: as above; assay type: cell-based; details: average of three separate experiments
Summary of the method: as §2

S. aureus K147 = assay: as above; assay type: cell-based; details: average of three separate experiments
Summary of the method: as §2

[6] = Lethal endotoxemia in galactosamine-sensitized mice; assay type: in vivo, CD-1 mice; details: peptide 200 μg intraperitoneal within 10 min of 10 μg LPS; 24 hours post injection; 5 mice per group; no peptide 100
Method: To confirm this in vivo, endotoxic shock was induced by intraperitoneal injection of 10 μg of E.coli 0111:B4 LPS in phosphate-buffered saline (PBS; pH 7.2) into galactosamine-sensitized 8- to 10- week old female CD-1 mice (5 per group). In experiments involving peptides, 200 μg in 100 μl of sterile water was injected at separate intraperitoneal sites within 10 min of LPS injection. Survival was monitored at 24 hours post injection.

[7] = system: Pseudomonas aeruginosa PAO; assay: Chronic Pseudomonas aeruginosa lung infection in rats, aerosol treatment; assay type: in vivo; details: lungs, quantitative culture; aerosol 10 ml of 5 mg/ml once daily for three days; untreated control 1.2 × 10^6
Method: Fifteen animals were utilized in these experiments (5 animals in each of three groups). All animals were inoculated intratracheal with 10^4 Pseudomonas aeruginosa PAO in agar beads. Three days following inoculation, rats were exposed to aerosol preparations from and Aero-Tech II nebulizer (CIS-US, Bedford, Mass.). The nebulizer was operated at 45 psi, with a flow rate of 10 L/min and contained 10 ml of the preparation to be aerosolized. The 10 ml volume was dispensed in 25-30 minutes. Animals were treated once daily for three days; control animals received daily exposure to 10 mls of 10 mM sodium citrate (pH 7.0); one treatment group received daily exposure to 10 mls of 10 mM sodium citrate (pH 7.0) containing 5 mg/ml of CM3; one treatment group received daily exposure to 10 mls of 10 mM sodium citrate (pH 7.0) containing 5 mg/ml of Cpα2. Animals were sacrificed on day 3, at one hour following the last exposure. The lungs of the treatment and control animals were removed for quantitative culture.

[8] = system: Salmonella typhimurium wild type (C587); assay type: cell-based; details: Mueller Hinton Broth
Method: (§3) The biological activity of the peptides can be determined by standard methods known to those of skill in the art, such as Aminimal inhibitory concentration (MIC)≅ assay described in the present examples, whereby the lowest concentration at which no change in OD is observed for a given period of time is recorded as MIC. Alternatively, Afractional inhibitory concentration (FIC)≅ is also useful for determination of synergy between the peptides of the invention, or the peptides in combination with known antibiotics. FICs are performed by checkerboard titrations of peptides in one dimension of a microtiter plate, and of antibiotics in the other dimension, for example. The FIC is calculated by looking at the impact of one antibiotic on the MIC of the other and vice versa. […] Preferably, an FIC of less than 0.5 is obtained for synergism. As used herein, FIC can be determined as follows: [formula]
(§4) These peptides varied in activity (Table 11), however, the C-terminally capped pleurocidin especially and its N-terminally capped lysine derivative had much better activities against a variety of bacteria including Vibrio anguillarum (Va), Aeromonas salmonicida (As), Staphylococcus epidermidis (C621), Salmonella typhimurium wild type (C587) and phoP phoQ mutant (C610), and Pseudomonas aeruginosa wild type (K799) and outer membrane barrier altered (Z61). The antimicrobial peptide CEME, a fusion peptide made from portions of an insect defensin ceropin A and the bee venom peptide melittin (Piers and Hancock, Mol. Microbiol., 12:951-8, 1994), as well as the known antibiotics polymyxin B and gentamicin were used as controls. Replacing the pleurocidin N-terminus with the dermaseptin N-terminus had no effect. Replacing pleurocidin N-terminus with the ceratoxin N-terminus reduced activity. […] Amidating the C-terminus improved antimicrobial activity. Replacing the pleurocidin C-terminus with the misgurin C-terminus had no effect.
(§5) Bacteria included Vibrio anguillarum (Va), Aeromonas salmonicida (As), Staphylococcus epidermidis (C621), Salmonella typhimurium wild type (C587) and phoP phoQ mutant (C6 10), and Pseudomonas aeruginosa wild type (K799) and outer membrane barrier altered (Z61).

[9] = system: Pseudomonas aeruginosa wild type (K799); assay type: cell-based; details: Mueller Hinton Broth
Method: as §3, §4, §5

[10] = system: Salmonella typhimurium phoP phoQ mutant (C610); assay type: cell-based; details: Mueller Hinton Broth
Method: as §3, §4, §5

[11] = system: Pseudomonas aeruginosa outer membrane barrier altered (Z61); assay type: cell-based; details: Mueller Hinton Broth
Method: as §3, §4, §5

[12] = system: Staphylococcus epidermidis (C621); assay type: cell-based; details: Mueller Hinton Broth
Method: as §3, §4, §5

[13] = system: Aeromonas salmonicida (As); assay type: cell-based; details: Mueller Hinton Broth
Method: as §3, §4, §5

Vibrio anguillarum (Va) = assay type: cell-based; details: Mueller Hinton Broth
Method: as §3, §4, §5

V. anguillarum = assay: Protection of coho salmon, peptide delivered constantly by intraperitoneal mini-osmotic pump; assay type: in vivo, juvenile coho salmon; details: P-CN osmotic pump, 19 fish; for Accumulated Mortalities: 30 days, saline pump control 75%, bacteria alone 67%
Method: Constant delivery of peptide P-CN using intraperitoneal mini-osmotic pumps was carried out. Briefly, juvenile coho salmon were divided into three treatment groups: A. Bacterial injection alone (12 fish). B. Fish saline osmotic pump and bacterial injection (12 fish). C. A combination of P-CN osmotic pump and bacterial injection (19 fish). The fish were anaesthetized and implanted (peritoneal cavity) with mini-osmotic pumps having a pumping rate of 0.13 µl/hour. Heaters were placed in the tanks to keep the water temperature between 12 and 13° C. Pumps were filled with concentrated P-CN to deliver approximately […] peptide to fish over a 30-day period. Twelve days after pump implantation, the fish received intraperitoneal injections of V. anguillarum ([…]). Mortalities were first noticed on day 3 for the group injected with bacteria alone and on day 5 for the group which received saline osmotic pumps as well as bacterial injections. However, there was no significant difference in mortality between the bacterial injection alone group and the saline osmotic pump group (67% vs. 75%). Mortalities were delayed for the P-CN osmotic pump group. The P-CN osmotic pump group had only one fish die on day 6 over the 30 days experiments with an accumulated mortality of 5%. […] Furthermore, since cationic peptides are not effective in a single treatment and constant administration is necessary, this argues for the potential success of transgenic fish expressing peptide P-CN.
Fish loss from disease is a significant problem in aquaculture worldwide. However, expression of natural cationic peptide genes in fish could increase disease resistance because of continual cellular production of the antimicrobial peptides. In order to choose optimal peptides for transgenic fish, the antimicrobial activities of some cationic peptides were determined by testing minimum inhibitory concentrations (MICs) in vitro. […] The in vivo effect of CEME was examined by intraperitoneal injection of the peptide along with V. anguillarum into juvenile coho salmon. Fish in the bacteria alone control group had 60% mortality, while fish receiving peptide and bacteria injections had 82% mortality. […] Therefore, constant delivery of CEME and Pleurocidin-CN using intraperitoneal mini-osmotic pumps were carried out. Twelve days after pump implantation, the fish received intraperitoneal injections of V. anguillarum. The CEME and pleurocidin-CN pump group had longer survival time and lower mortalities than the control groups (50% Vs. 13%, and 75% Vs. 5%, respectively). Indolicidin transgenic cutthroat trout were made using a construct including an MT promoter, growth hormone signal, pre-region, indolicidin, and terminator. […]

[14] = cationic peptide concentration, combined with lysozyme
[15] = lysozyme concentration, combined with the peptide

KWKKFIKSLTKSAAKTVVKTAKKPLIV [CM3]
MIC A MIC of Peptides ([1]; peptide alone, P. aeruginosa mutant Nal B, H744 (Table 5)): 2 µg/mL | (A) Peptide doses together with Cipro ([1]; peptide concentration in combination with ciprofloxacin, Nal B, H744): .5 µg/mL | (B) MIC of Carb when combined with peptide ([2]; Carbenicillin with peptide at concentration (A)): 32 µg/mL | FIC index ([2]; peptide + Carbenicillin, about 0.5 or less synergy, 1.0 additivity, >1.0 antagonism): 0.75 | MIC A MIC of Peptides ([2]; peptide alone): 2 µg/mL | (A) Peptide doses together with Carb ([2]; peptide concentration in combination with Carbenicillin): .5 µg/mL | Survival post bacterial challenge, surviving mice ([3]; double dose (200 μg per mouse i.p. at 30 min and 16 hrs), 16 hr): 13 | Survival post bacterial challenge, surviving mice ([3]; double dose, 24 hr): 13 | Survival post bacterial challenge, surviving mice ([3]; double dose, 41 hr): 11 | Survival post bacterial challenge, surviving mice ([3]; double dose, 48 hr): 11 | Survival post bacterial challenge, surviving mice ([3]; double dose, 64 hr): 10 | Survival (%) post bacterial challenge ([3]; double dose, 64 hr): 76% | Survival post bacterial challenge, surviving mice ([3]; double dose, 72 hr): 10 | Survival (%) post bacterial challenge ([3]; double dose, 72 hr): 76% | Survival post bacterial challenge, surviving mice ([3]; double dose, 96 hr): 8 | Survival (%) post bacterial challenge ([3]; double dose, 96 hr): 61% | Survival post bacterial challenge, surviving mice ([3]; single dose (200 μg per mouse i.p. at 30 min), 16 hr): 15 | Survival post bacterial challenge, surviving mice ([3]; single dose, 24 hr): 15 | Survival post bacterial challenge, surviving mice ([3]; single dose, 41 hr): 14 | Survival post bacterial challenge, surviving mice ([3]; single dose, 48 hr): 13 | Survival post bacterial challenge, surviving mice ([3]; single dose, 64 hr): 12 | Survival (%) post bacterial challenge ([3]; single dose, 64 hr): 80% | Survival post bacterial challenge, surviving mice ([3]; single dose, 72 hr): 11 | Survival (%) post bacterial challenge ([3]; single dose, 72 hr): 73% | Survival post bacterial challenge, surviving mice ([3]; single dose, 96 hr): 11 | Survival (%) post bacterial challenge ([3]; single dose, 96 hr): 73% | FIC for combination of cationic peptide and lysozyme (Salmonella typhi): 0.75 | Lowest [CP] showing synergy (Salmonella typhi; [14]): 2.61 µg/mL | Lowest [Lyso] showing synergy (Salmonella typhi; [15]): 250 µg/mL | FIC for combination of cationic peptide and lysozyme (P. aeruginosa (H103)): 0.50 | Lowest [CP] showing synergy (P. aeruginosa (H103); [14]): 1.3 µg/mL | Lowest [Lyso] showing synergy (P. aeruginosa (H103); [15]): 15.6 µg/mL | FIC for combination of cationic peptide and lysozyme (E. coli [4]): 0.31 | Lowest [CP] showing synergy (E. coli [4]; [14]): 0.041 µg/mL | Lowest [Lyso] showing synergy (E. coli [4]; [15]): 15.6 µg/mL | MIC S. epidermis (S. epidermis): 16 µg/mL | MIC P. aeruginosa (P. aeruginosa): 5 µg/mL | MIC S. aureus (S. aureus): >64 µg/mL | MIC E. coli (E. coli [5]): 1 µg/mL | MIC S. aureus K147 (S. aureus K147): >64 µg/mL | Mortality (%) [6]: 80% | Mean Colony Forming Units +/− S.D. [7]: 7.4 × 10^4 +/− 6.7 × 10^4* CFU

GWGSFFKKAAHVGKHVGKAALTHYL-NH2 [P-CN]
MIC C587 [8]: 4 µg/mL | MIC K799 [9]: 8 µg/mL | MIC C610 [10]: <0.5 µg/mL | MIC Z61 [11]: 4 µg/mL | MIC C621 [12]: 4 µg/mL | MIC As [13]: 1 µg/mL | MIC Va (Vibrio anguillarum (Va)): 2 µg/mL | Accumulated Mortalities (V. anguillarum): 5% | Accumulated Mortalities (V. anguillarum; listed as pleurocidin-CN): 5% | Mortalities (fish died on the day) (V. anguillarum; day 6 after V. anguillarum challenge): 1
